Reference: patent US20080160106A1, “Novel Uses for Proton Pump Inhibitors” (Istituto Superiore de Sanita, priority 2004, published 2008)
Entries after “also recorded” stand apart in the source; their conditions may differ.

Legend:
[1] = system: human melanoma cells; assay: In vivo effects of omeprazole and cisplatin on tumour growth in the human/SCID mouse model; set-up: species or system CB.17 scid/scid mice; conditions: cisplatin alone, single dose 5 mg/kg i.p.
Experimental: Animals: CB.17 SCID/SCID female mice (Harlan, Italy) were used at 4-5 weeks of age and were kept under specific pathogen-free conditions. SCID mice were housed in microisolator cages, and all food, water and bedding were autoclaved prior to use.
Transplantation and growth of human tumours in SCID mice: Each mouse was injected subcutaneously (s.c.) into the right flank with 3×10^6 cells resuspended in 0.2 ml RPMI 1640 supplemented with 10% FCS. After transplantation, the size of each tumour was measured using callipers. The tumour weight was estimated according to Geran et al. (1972) using the formula:
Tumour weight (mg)=length (mm)×width^2 (min)/2.
Mice treatment: Omeprazole (Astra-Zeneca, Italy) and pantoprazole (Sigma Tau) were administered at a dose of 75 mg/kg by gavage as previously described (Watson and Smith, 2001), as a suspension in PBS1X. Lansoprazole (Pharmacia, Sweden) and rabeprazole (Janssen) were administered at a dose of 25 mg/kg by gavage as previously described (Watson and Smith, 2001), as a suspension in PBS1X.
Cisplatin (Aventis, France) was administered intraperitoneally (i.p.) at a dose of 5 mg/kg (Son and Huang 1994).
Other: unless otherwise specified, other parameters are as set out in Examples 1 and 2, above.

[2] = system: human melanoma cells; assay: Cytotoxic effect of omeprazole in vitro, dose response curve (Trypan blue exclusion; Live/Dead assay); assay type: cell-based; conditions: 0.01-10 μg/ml
Experimental: Tumour cells: Human tumour cells (24 melanoma cell lines, 2 colon adenocarcinoma cell lines and 2 breast cancer cell lines) obtained from a primary tumour were cultured in buffered (with bicarbonate) or not buffered (without bicarbonate) RPMI 1640 medium enriched with 10% foetal bovine serum and antibiotics in a humidified 5% C02 and 95% air atmosphere.
Dose response curves: Tumour cells, growing in suspension, were plated at 1.5×10^5/ml, in 24 wells cell culture plate (Costar). Tumour cells growing in adherence were plated at 3×10^4 cells/well in 24 wells cell culture plate. Each dilution was tested at least in triplicate in each experiment.
Cytotoxicity assay: Cytotoxicity was evaluated using the Trypan blue exclusion method after treatment with each chemotherapeutic drug. Briefly, after treatment, cells growing in suspension were collected, centrifuged and resuspended in PBS1X. Alternatively, cells growing in adherence were collected, pooling both adherent (live) after trypsinisation and in suspension (assumed dead) cells. […] After 5 minutes, cells were loaded on a haemocytometer (Neubauer) and both live (not stained) and dead (blue stained) cells were counted under a light microscope. Cell viability was assessed calculating the percentage of dead cells using the formula: […]
Live/Dead Viability/Cytotoxicity Assay®. This assay (Molecular Probes, OR, USA) provides a two colour fluorescence cell viability assay that is based on the simultaneous determination of live and dead cells with two probes (Calcein AM and Ethidium homodimer 1) that measure two recognised parameters of cell viability—intracellular esterase activity and plasma membrane integrity. Live cells were distinguished by the presence of ubiquitous intracellular esterase activity, determined by the enzymatic conversion of the virtually non-fluorescent cell permeant Calcein AM to the intensely fluorescent calcein (ex/em 495 nm/515 nm), which is retained in the cell. […] The samples were analysed with a FACScan cytometer (Becton Dickinson) equipped with a 488 argon laser. […]

[3] = system: human melanoma cells resistant to cisplatin; assay: Effects of omeprazole on cisplatin resistance in vitro (cisplatin dose response curve); assay type: cell-based; conditions: without cisplatin
Experimental: Cytotoxicity assay: Cytotoxicity was evaluated using the Trypan blue exclusion method after treatment with each chemotherapeutic drug. Briefly, after treatment, cells growing in suspension were collected, centrifuged and resuspended in PBS1X. Alternatively, cells growing in adherence were collected, pooling both adherent (live) after trypsinisation and in suspension (assumed dead) cells. Cells were thus centrifuged (10 minutes at 1500 rpm) and resuspended in PBS1X. An aliquot of the cell suspension was diluted 1:1 (v/v) with 0.4% trypan blue. After 5 minutes, cells were loaded on a haemocytometer (Neubauer) and both live (not stained) and dead (blue stained) cells were counted under a light microscope. Cell viability was assessed calculating the percentage of dead cells using the formula:
% dead cells=(no. dead cells/no. dead cells+no. live cells)×100.
Drugs: The PPIs were as in Example 1, above. Cisplatin (Aventis, France) was resuspended in PBS1X at a stock concentration of 1 mg/ml, and stored at −20° C. Both stock solutions were thawed immediately before use and not frozen again. 5-Fluorouracil (Teva Pharma, Holland) was supplied in the form of a solution at a concentration of 50 mg/ml, and was stored at r.t. as indicated by the supplier. […]

Row | SMILES | tumour growth [1] | cytotoxic effect (% dead cells) ([2]; buffered neutral medium pH 7.2) | cytotoxic effect (% dead cells) ([2]; not buffered, slightly acidic medium) | cytotoxic effect of omeprazole alone [3]
1 | N.N.[Cl][Pt][Cl] [cisplatin] | did not show a significant effect on tumour growth; also recorded: almost ineffective if administered alone | – | – | –
2 | COc1ccc2[nH]c([S+]([O-])Cc3ncc(C)c(OC)c3C)nc2c1 (stereo not shown) [omeprazole] | – | no apparent cytotoxic effect | cytotoxic in a dose-dependent manner only for tumour cells grown in slightly acidic medium; also recorded: markedly exerted a cytotoxic effect on tumour cells, in a dose-dependent manner | did not exhibit any cytotoxic effect
